Measured values reported in PMC9627161 (Frontiers in Pharmacology, 2022).
Peptide text beside a SMILES is read from it.

Key:
Mpro = Mpro (Severe acute respiratory syndrome coronavirus 2, UniProt P0DTD1); test: MST binding to Mpro protein; design: species or system SARS-CoV-2; conditions: mean ± SD (n = 3)
SARS-CoV-2 pseudovirus = conditions: 1 h, 5 μM
RBD = RBD (Severe acute respiratory syndrome coronavirus 2, UniProt P0DTC2); test: MST binding to RBD protein; design: species or system SARS-CoV-2; conditions: mean ± SD (n = 3)
Method: To detect the interaction between the peptides and RBD/Mpro, the MST experiments were performed using the Monolith NT.115 instrument. RBD and Mpro proteins were labeled with the Lys labeling kit, respectively. In the assay, the final concentration of the labeled protein was 50 nM, and the peptides were gradient-diluted in 1:1 dilution and starting from 12.5 μM. After brief incubation in MST buffer, the samples were loaded into MST-standard glass capillaries. All the measurements were performed in triplicate using automatically assigned 50% MST power and 20% LED power.

With `CC[C@H](C)[C@H](N)C(=O)N[C@@H](CCC(=O)O)C(=O)N[C@@H](CCC(=O)O)C(=O)N[C@@H](CCC(N)=O)C(=O)N[C@@H](C)C(=O)N[C@@H](CCCCN)C(=O)N[C@H](C(=O)N[C@@H](Cc1ccccc1)C(=O)N[C@@H](CC(C)C)C(=O)N[C@@H](CC(=O)O)C(=O)N[C@@H](CCCCN)C(=O)N[C@@H](Cc1ccccc1)C(=O)N[C@@H](CC(N)=O)C(=O)N[C@@H](Cc1c[nH]cn1)C(=O)N[C@@H](CCC(=O)O)C(=O)N[C@@H](CCCCN)C(=O)N[C@@H](CCC(=O)O)C(=O)N[C@@H](CC(=O)O)C(=O)N[C@@H](CC(C)C)C(=O)N[C@@H](CCC(=O)O)C(=O)N[C@@H](Cc1ccc(O)cc1)C(=O)N[C@@H](CCC(N)=O)C(=O)N[C@@H](CO)C(=O)N[C@@H](CO)C(=O)N[C@@H](CC(C)C)C(=O)N[C@@H](C)C(=O)N[C@@H](CO)C(=O)N[C@@H](Cc1c[nH]c2ccccc12)C(=O)N[C@@H](CC(N)=O)C(=O)N[C@@H](Cc1ccc(O)cc1)C(=O)N[C@@H](CC(N)=O)C(=O)N[C@H](C(=O)N[C@@H](CC(N)=O)C(=O)N[C@H](C(=O)N[C@H](C(=O)O)[C@@H](C)O)[C@@H](C)CC)[C@@H](C)O)[C@@H](C)O` [Peptide-5] (H-IEEQAKTFLDKFNHEKEDLEYQSSLASWNYNTNIT-OH; N-terminus and C-terminus assumed) the “Mpro, Kd” value (Mpro) was “no binding”, the “Mpro, Kd” value (Mpro; listed as peptide-5) was “no binding affinity” and the “inhibition against pseudotyped SARS-CoV-2 virus” value (SARS-CoV-2 pseudovirus) was “about 40%”.
In the case of `CC(=O)N[C@@H](CO)C(=O)N[C@H](C(=O)N[C@@H](CO)C(=O)N[C@@H](C)C(=O)N[C@H](C(=O)N[C@@H](CC(C)C)C(=O)N[C@@H](CCC(N)=O)C(=O)N[C@@H](CO)C(=O)NCC(=O)N[C@@H](Cc1ccccc1)C(=O)N[C@@H](CCCNC(=N)N)C(=O)N[C@@H](CCCCN)C(=O)N[C@@H](Cc1ccccc1)C(N)=O)C(C)C)[C@@H](C)O` [Peptide-21], the “RBD, Kd” value (RBD) is reported as “no binding”, the “RBD, Kd” value (RBD; listed as peptide-21) is reported as “no binding affinity” and the “inhibition against pseudotyped SARS-CoV-2 virus” value (SARS-CoV-2 pseudovirus) is reported as less than 20%.
